Legend:
Assay in all cases: relative viability (nuclei count vs DMSO), 5 days (fraction); higher = more cells survive
[1] = test system: ABC-1
Method in brief: (§1)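 Five library-drug doses in √10 steps were combined with a fixed anchor-drug dose, or a single drug was given alone, by pin tool to lung cancer cell lines in 1536-well plates the day after seeding. Nuclei were stained and counted after 5 days. Relative viability is the nuclei count in treated wells over that in vehicle wells, taken as the median of duplicate plates.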

[2] = test system: CAL-12T
Method in brief: as §1

[3] = test system: COR-L 105
Method in brief: as §1

[4] = test system: ChaGo-K-1
Method in brief: as §1

[5] = test system: EKVX
Method in brief: as §1

[6] = test system: EPLC-272H
Method in brief: as §1

[7] = test system: H3255
Method in brief: as §1

[8] = test system: HCC-366
Method in brief: as §1

[9] = test system: HCC-827
Method in brief: as §1

[10] = test system: NCI-H1355
Method in brief: as §1

[11] = test system: NCI-H1792
Method in brief: as §1

[12] = test system: NCI-H1975
Method in brief: as §1

[13] = test system: NCI-H1993
Method in brief: as §1

[14] = test system: NCI-H2009
Method in brief: as §1

[15] = test system: NCI-H2085
Method in brief: as §1

[16] = test system: NCI-H2087
Method in brief: as §1

[17] = test system: NCI-H2228
Method in brief: as §1

[18] = test system: NCI-H322M
Method in brief: as §1

[19] = test system: NCI-H441
Method in brief: as §1

[20] = test system: NCI-H460
Method in brief: as §1

[21] = test system: SK-MES-1
Method in brief: as §1

Cc1cn(-c2cc(NC(=O)c3ccc(C)c(Nc4nccc(-c5cccnc5)n4)c3)cc(C(F)(F)F)c2)cn1 [Nilotinib] + CS(=O)(=O)N1CCN(Cc2cc3nc(-c4cccc5[nH]ncc45)nc(N4CCOCC4)c3s2)CC1 [Pictilisib] (partner 1 µM)
relative viability ([1]; first compound 0.001 µM): 0.758
relative viability ([1]; first compound 0.003162 µM): 0.697
relative viability ([1]; first compound 0.01 µM): 0.788
relative viability ([1]; first compound 0.03162 µM): 0.619
relative viability ([1]; first compound 0.1 µM): 0.346
relative viability ([2]; first compound 0.001 µM): 0.45
relative viability ([2]; first compound 0.01 µM): 0.354
relative viability ([2]; first compound 0.03162 µM): 0.307
relative viability ([2]; first compound 0.1 µM): 0.398
relative viability ([3]; first compound 0.001 µM): 0.435
relative viability ([3]; first compound 0.01 µM): 0.407
relative viability ([3]; first compound 0.03162 µM): 0.437
relative viability ([3]; first compound 0.1 µM): 0.331
relative viability ([4]; first compound 0.001 µM): 1.22
relative viability ([4]; first compound 0.003162 µM): 0.581
relative viability ([4]; first compound 0.01 µM): 0.654
relative viability ([4]; first compound 0.03162 µM): 0.315
relative viability ([4]; first compound 0.1 µM): 0.444
relative viability ([5]; first compound 0.001 µM): 0.486
relative viability ([5]; first compound 0.003162 µM): 0.588
relative viability ([5]; first compound 0.01 µM): 0.531
relative viability ([5]; first compound 0.03162 µM): 0.344
relative viability ([5]; first compound 0.1 µM): 0.552
relative viability ([6]; first compound 0.001 µM): 0.273
relative viability ([6]; first compound 0.003162 µM): 0.308
relative viability ([6]; first compound 0.01 µM): 0.258
relative viability ([6]; first compound 0.03162 µM): 0.338
relative viability ([6]; first compound 0.1 µM): 0.258
relative viability ([7]; first compound 0.001 µM): 0.44
relative viability ([7]; first compound 0.003162 µM): 0.438
relative viability ([7]; first compound 0.01 µM): 0.57
relative viability ([7]; first compound 0.03162 µM): 0.416
relative viability ([7]; first compound 0.1 µM): 0.441
relative viability ([8]; first compound 0.001 µM): 0.161
relative viability ([8]; first compound 0.01 µM): 0.133
relative viability ([8]; first compound 0.03162 µM): 0.111
relative viability ([8]; first compound 0.1 µM): 0.137
relative viability ([9]; first compound 0.001 µM): 0.685
relative viability ([9]; first compound 0.003162 µM): 0.985
relative viability ([9]; first compound 0.01 µM): 1.15
relative viability ([9]; first compound 0.03162 µM): 0.829
relative viability ([9]; first compound 0.1 µM): 0.965
relative viability ([10]; first compound 0.001 µM): 0.399
relative viability ([10]; first compound 0.003162 µM): 0.468
relative viability ([10]; first compound 0.01 µM): 0.371
relative viability ([10]; first compound 0.03162 µM): 0.421
relative viability ([10]; first compound 0.1 µM): 0.19
relative viability ([11]; first compound 0.001 µM): 0.209
relative viability ([11]; first compound 0.01 µM): 0.266
relative viability ([12]; first compound 0.001 µM): 0.299
relative viability ([12]; first compound 0.003162 µM): 0.358
relative viability ([12]; first compound 0.01 µM): 0.231
relative viability ([12]; first compound 0.03162 µM): 0.312
relative viability ([12]; first compound 0.1 µM): 0.19
relative viability ([13]; first compound 0.001 µM): 0.984
relative viability ([13]; first compound 0.003162 µM): 0.682
relative viability ([13]; first compound 0.01 µM): 0.789
relative viability ([13]; first compound 0.03162 µM): 0.917
relative viability ([13]; first compound 0.1 µM): 0.673
relative viability ([14]; first compound 0.001 µM): 0.79
relative viability ([14]; first compound 0.003162 µM): 0.913
relative viability ([14]; first compound 0.01 µM): 0.958
relative viability ([14]; first compound 0.03162 µM): 0.655
relative viability ([14]; first compound 0.1 µM): 0.187
relative viability ([15]; first compound 0.001 µM): 0.435
relative viability ([15]; first compound 0.003162 µM): 0.457
relative viability ([15]; first compound 0.01 µM): 0.402
relative viability ([15]; first compound 0.03162 µM): 0.466
relative viability ([15]; first compound 0.1 µM): 0.405
relative viability ([16]; first compound 0.001 µM): 0.759
relative viability ([16]; first compound 0.003162 µM): 0.846
relative viability ([16]; first compound 0.01 µM): 0.984
relative viability ([16]; first compound 0.03162 µM): 0.606
relative viability ([16]; first compound 0.1 µM): 0.32
relative viability ([17]; first compound 0.001 µM): 0.27
relative viability ([17]; first compound 0.003162 µM): 0.402
relative viability ([17]; first compound 0.01 µM): 0.31
relative viability ([17]; first compound 0.03162 µM): 0.356
relative viability ([17]; first compound 0.1 µM): 0.397
relative viability ([18]; first compound 0.001 µM): 0.651
relative viability ([18]; first compound 0.003162 µM): 0.503
relative viability ([18]; first compound 0.03162 µM): 0.529
relative viability ([18]; first compound 0.1 µM): 0.528
relative viability ([19]; first compound 0.001 µM): 0.371
relative viability ([19]; first compound 0.003162 µM): 0.576
relative viability ([19]; first compound 0.01 µM): 0.532
relative viability ([19]; first compound 0.1 µM): 0.305
relative viability ([20]; first compound 0.001 µM): 0.356
relative viability ([20]; first compound 0.003162 µM): 0.41
relative viability ([20]; first compound 0.01 µM): 0.402
relative viability ([20]; first compound 0.03162 µM): 0.263
relative viability ([20]; first compound 0.1 µM): 0.418
relative viability ([21]; first compound 0.001 µM): 0.433
relative viability ([21]; first compound 0.003162 µM): 0.447
relative viability ([21]; first compound 0.01 µM): 0.424
relative viability ([21]; first compound 0.03162 µM): 0.396
relative viability ([21]; first compound 0.1 µM): 0.465

CN1CCN(CCOc2cc(OC3CCOCC3)c3c(Nc4c(Cl)ccc5c4OCO5)ncnc3c2)CC1 [Saracatinib] + CS(=O)(=O)N1CCN(Cc2cc3nc(-c4cccc5[nH]ncc45)nc(N4CCOCC4)c3s2)CC1 [Pictilisib] (partner 1 µM)
relative viability ([1]; first compound 0.02 µM): 0.695
relative viability ([1]; first compound 0.2 µM): 0.938
relative viability ([1]; first compound 0.6325 µM): 0.85
relative viability ([1]; first compound 2 µM): 0.822
relative viability ([2]; first compound 0.02 µM): 0.428
relative viability ([2]; first compound 0.2 µM): 0.399
relative viability ([2]; first compound 0.6325 µM): 0.491
relative viability ([2]; first compound 2 µM): 0.255
relative viability ([3]; first compound 0.02 µM): 0.445
relative viability ([3]; first compound 0.2 µM): 0.331
relative viability ([3]; first compound 0.6325 µM): 0.361
relative viability ([3]; first compound 2 µM): 0.244
relative viability ([4]; first compound 0.02 µM): 0.784
relative viability ([4]; first compound 0.2 µM): 0.521
relative viability ([4]; first compound 0.6325 µM): 0.903
relative viability ([4]; first compound 2 µM): 0.379
relative viability ([5]; first compound 0.02 µM): 0.417
relative viability ([5]; first compound 0.2 µM): 0.409
relative viability ([5]; first compound 0.6325 µM): 0.366
relative viability ([5]; first compound 2 µM): 0.175
relative viability ([6]; first compound 0.02 µM): 0.337
relative viability ([6]; first compound 0.2 µM): 0.298
relative viability ([6]; first compound 0.6325 µM): 0.388
relative viability ([6]; first compound 2 µM): 0.232
relative viability ([7]; first compound 0.02 µM): 0.432
relative viability ([7]; first compound 0.2 µM): 0.391
relative viability ([7]; first compound 0.6325 µM): 0.352
relative viability ([7]; first compound 2 µM): 0.156
relative viability ([8]; first compound 0.02 µM): 0.132
relative viability ([8]; first compound 0.2 µM): 0.151
relative viability ([8]; first compound 0.6325 µM): 0.107
relative viability ([8]; first compound 2 µM): 0.103
relative viability ([9]; first compound 0.02 µM): 1.1
relative viability ([9]; first compound 0.2 µM): 0.499
relative viability ([9]; first compound 0.6325 µM): 0.501
relative viability ([9]; first compound 2 µM): 0.323
relative viability ([10]; first compound 0.02 µM): 0.497
relative viability ([10]; first compound 0.2 µM): 0.467
relative viability ([10]; first compound 0.6325 µM): 0.516
relative viability ([10]; first compound 2 µM): 0.461
relative viability ([11]; first compound 0.02 µM): 0.293
relative viability ([11]; first compound 0.2 µM): 0.239
relative viability ([11]; first compound 0.6325 µM): 0.302
relative viability ([11]; first compound 2 µM): 0.263
relative viability ([12]; first compound 0.02 µM): 0.331
relative viability ([12]; first compound 0.6325 µM): 0.298
relative viability ([12]; first compound 2 µM): 0.174
relative viability ([13]; first compound 0.02 µM): 0.655
relative viability ([13]; first compound 0.2 µM): 0.969
relative viability ([13]; first compound 2 µM): 0.652
relative viability ([14]; first compound 0.02 µM): 0.759
relative viability ([14]; first compound 0.2 µM): 0.465
relative viability ([14]; first compound 0.6325 µM): 0.644
relative viability ([14]; first compound 2 µM): 0.4
relative viability ([15]; first compound 0.02 µM): 0.474
relative viability ([15]; first compound 0.2 µM): 0.345
relative viability ([15]; first compound 0.6325 µM): 0.481
relative viability ([15]; first compound 2 µM): 0.377
relative viability ([16]; first compound 0.02 µM): 0.963
relative viability ([16]; first compound 0.2 µM): 0.567
relative viability ([16]; first compound 0.6325 µM): 1.06
relative viability ([16]; first compound 2 µM): 0.967
relative viability ([17]; first compound 0.02 µM): 0.385
relative viability ([17]; first compound 0.2 µM): 0.206
relative viability ([17]; first compound 0.6325 µM): 0.244
relative viability ([17]; first compound 2 µM): 0.207
relative viability ([18]; first compound 0.02 µM): 0.549
relative viability ([18]; first compound 0.2 µM): 0.474
relative viability ([18]; first compound 0.6325 µM): 0.496
relative viability ([18]; first compound 2 µM): 0.296
relative viability ([19]; first compound 0.02 µM): 0.461
relative viability ([19]; first compound 0.2 µM): 0.406
relative viability ([19]; first compound 0.6325 µM): 0.501
relative viability ([19]; first compound 2 µM): 0.329
relative viability ([20]; first compound 0.02 µM): 0.367
relative viability ([20]; first compound 0.6325 µM): 0.242
relative viability ([20]; first compound 2 µM): 0.286
relative viability ([21]; first compound 0.02 µM): 0.375
relative viability ([21]; first compound 0.2 µM): 0.256
relative viability ([21]; first compound 0.6325 µM): 0.267
relative viability ([21]; first compound 2 µM): 0.183
